Values of other authors in patent US20240299470A1, “METHODS OF PROBIOTIC TREATMENT TO IMPROVE HUMAN HEALTH” (SEED HEALTH INC., priority 2021, published 2024).

What was measured:
overweight individuals = conditions: delivered directly in the colon
mice = conditions: NOD2-dependent but MyD88-independent

| Molecule | energy intake, adiposity, and lipid liver content (overweight individuals) | plasma levels of peptide YY (PYY) and glucagon-like peptide 1 (GLP-1) (overweight individuals) | protection from colitis (mice) |
| --- | --- | --- | --- |
| CCC(=O)O [propionate] | reduced | increased |  |
| M-tri-Lys |  |  | protected mice from colitis |
